# Assays:
# [1] = molecular target: MAO-A (amine oxidase [flavin-containing] A), Homo sapiens (UniProt P21397); assay: Ratio of Kinact to KI of human MAOA
# [2] = molecular target: MAO-B (amine oxidase [flavin-containing] B), Homo sapiens (UniProt P27338); assay: Ratio of Kinact to KI of human MAOB
# [3] = Inhibition of human MAOA; details: read-out: Kinact
# [4] = Inhibition of human MAOB; details: read-out: Kinact
# Chain of MAO-A (amine oxidase [flavin-containing] A), Homo sapiens (P21397 whole entry, looked up): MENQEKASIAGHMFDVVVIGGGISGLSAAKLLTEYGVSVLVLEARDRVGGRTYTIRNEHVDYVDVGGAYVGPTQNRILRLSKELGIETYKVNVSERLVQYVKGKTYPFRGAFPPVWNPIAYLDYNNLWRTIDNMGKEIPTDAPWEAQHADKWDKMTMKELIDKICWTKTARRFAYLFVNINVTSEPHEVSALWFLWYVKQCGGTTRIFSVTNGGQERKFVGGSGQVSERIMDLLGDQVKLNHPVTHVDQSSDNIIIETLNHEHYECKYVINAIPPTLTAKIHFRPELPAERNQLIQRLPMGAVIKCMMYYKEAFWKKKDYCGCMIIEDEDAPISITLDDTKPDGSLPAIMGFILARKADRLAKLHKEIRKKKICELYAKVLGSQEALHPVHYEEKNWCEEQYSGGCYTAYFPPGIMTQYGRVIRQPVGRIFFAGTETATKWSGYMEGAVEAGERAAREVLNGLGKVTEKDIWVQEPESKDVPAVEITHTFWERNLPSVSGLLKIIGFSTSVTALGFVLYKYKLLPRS
# Chain of MAO-B (amine oxidase [flavin-containing] B), Homo sapiens (P27338 whole entry, looked up): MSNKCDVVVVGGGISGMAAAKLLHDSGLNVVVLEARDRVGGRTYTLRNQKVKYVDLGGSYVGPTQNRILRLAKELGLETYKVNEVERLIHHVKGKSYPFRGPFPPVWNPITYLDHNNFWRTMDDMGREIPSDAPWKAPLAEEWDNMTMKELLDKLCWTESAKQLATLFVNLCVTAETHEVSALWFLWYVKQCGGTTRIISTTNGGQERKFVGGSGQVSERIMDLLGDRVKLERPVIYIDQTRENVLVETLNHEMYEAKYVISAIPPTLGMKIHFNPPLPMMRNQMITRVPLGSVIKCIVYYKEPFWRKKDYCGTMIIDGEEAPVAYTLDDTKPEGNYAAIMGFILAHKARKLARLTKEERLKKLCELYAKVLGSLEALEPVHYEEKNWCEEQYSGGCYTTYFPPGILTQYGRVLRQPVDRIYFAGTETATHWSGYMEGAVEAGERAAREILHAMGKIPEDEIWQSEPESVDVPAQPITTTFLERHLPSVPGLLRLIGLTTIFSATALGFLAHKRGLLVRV
Structure (SMILES),kinact/KI [1] [M⁻¹ s⁻¹],kinact/KI [2] [M⁻¹ s⁻¹],KI (inactivation) [3] [µM],KI (inactivation) [4] [µM]
NC1CC1(c1ccccc1)c1ccccc1 (stereo not drawn),< 14,< 1.5,–,–
N[C@@H]1C[C@H]1c1ccsc1 (relative stereo),< 18,22.3,1550,–
N[C@@H]1C[C@H]1c1ccc(C(F)(F)F)cc1 (relative stereo),2860,7510,7.7,29.8
N[C@@H]1C[C@H]1c1cccc2ccccc12 (relative stereo),362,4840,9.8,38.7
